Calls of active or inactive are those of the source. The calls are words filed in the database; no cut-off is given here.
How the values were obtained:
K562 [1] = assay: Induction of apoptosis in human K562 cells assessed as late apoptotic cells at 4 nM incubated for 48 hrs by Annexin V/PI staining based flow cytometry (reference value: 3.37 +/- 0.21 %); format: functional
MCF7 = assay: cells; conditions: Homo sapiens, MCF7, 72 h
Description: Antiproliferative activity against human MCF7 cells incubated for 72 hrs by MTT assay

Histone deacetylase 3 [2] = target: T1, Histone deacetylase 3 (Homo sapiens, UniProt O15379); assay: Inhibition of HDAC3 derived from human HeLa cell extract using Ac-Leu-Gly-Lys (Ac)-AMC as substrate by fluorescence based assay; format: cell-free
T1 sequence (O15379 whole entry): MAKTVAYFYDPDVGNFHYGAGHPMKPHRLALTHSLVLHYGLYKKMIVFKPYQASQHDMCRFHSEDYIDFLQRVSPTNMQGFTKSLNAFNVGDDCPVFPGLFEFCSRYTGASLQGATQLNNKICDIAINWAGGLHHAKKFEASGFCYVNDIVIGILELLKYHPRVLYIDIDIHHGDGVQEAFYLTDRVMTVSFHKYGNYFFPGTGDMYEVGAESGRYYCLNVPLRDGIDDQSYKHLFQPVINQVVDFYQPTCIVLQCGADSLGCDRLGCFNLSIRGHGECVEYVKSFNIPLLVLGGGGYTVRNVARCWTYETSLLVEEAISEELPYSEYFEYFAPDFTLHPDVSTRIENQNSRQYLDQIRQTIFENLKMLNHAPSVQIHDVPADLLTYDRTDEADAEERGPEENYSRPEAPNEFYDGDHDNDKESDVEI

K562 [3] = assay: Induction of apoptosis in human K562 cells assessed as increase in Bax level incubated for 24 hrs by Western blot analysis; format: functional, cell-based; conditions: dose 2-8 nM
[4] = Toxicity in ICR mouse allografted with mouse H22 cells assessed as body weight reduction at 10 to 20 mg/kg, iv qd for 17 days consecutively; format: organism-based; conditions: in vivo, dose 10-20 mg/kg, time 17 day
Histone deacetylase 1 [5] = target: T2, Histone deacetylase 1 (Homo sapiens, UniProt Q13547); assay: Inhibition of HDAC1 in human K562 cells assessed as increase in Acetyl-histone H3 level at 0.01 to 1 uM incubated for 24 hrs by Western blot analysis; format: cell-based; conditions: dose 0.01-1 µM
T2 sequence (Q13547 whole entry): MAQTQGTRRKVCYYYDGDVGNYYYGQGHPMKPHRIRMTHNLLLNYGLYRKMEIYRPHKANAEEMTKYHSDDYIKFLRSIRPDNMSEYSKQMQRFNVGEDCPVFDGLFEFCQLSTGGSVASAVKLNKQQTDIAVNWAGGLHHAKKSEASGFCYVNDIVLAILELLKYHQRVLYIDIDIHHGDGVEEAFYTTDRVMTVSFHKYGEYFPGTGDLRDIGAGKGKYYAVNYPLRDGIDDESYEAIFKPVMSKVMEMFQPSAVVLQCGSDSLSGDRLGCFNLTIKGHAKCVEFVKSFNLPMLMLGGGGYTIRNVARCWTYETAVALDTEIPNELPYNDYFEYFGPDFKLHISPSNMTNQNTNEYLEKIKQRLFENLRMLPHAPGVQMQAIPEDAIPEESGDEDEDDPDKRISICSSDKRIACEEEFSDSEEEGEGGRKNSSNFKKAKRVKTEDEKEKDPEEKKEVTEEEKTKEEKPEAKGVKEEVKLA

K562 [6] = assay: Induction of cell cycle arrest at G2 phase in human K562 cells at 2 nM incubated for 48 hrs by PI staining based flow cytometry (Rvb =15.36 +/- 0.46 %); format: functional
Histone deacetylase 7 = target: T3, Histone deacetylase 7 (Homo sapiens, UniProt Q8WUI4); assay: Inhibition of HDAC7 derived from human HeLa cell extract using Ac-Leu-Gly-Lys (Ac)-AMC as substrate by fluorescence based assay; format: cell-free
T3 sequence (Q8WUI4 whole entry): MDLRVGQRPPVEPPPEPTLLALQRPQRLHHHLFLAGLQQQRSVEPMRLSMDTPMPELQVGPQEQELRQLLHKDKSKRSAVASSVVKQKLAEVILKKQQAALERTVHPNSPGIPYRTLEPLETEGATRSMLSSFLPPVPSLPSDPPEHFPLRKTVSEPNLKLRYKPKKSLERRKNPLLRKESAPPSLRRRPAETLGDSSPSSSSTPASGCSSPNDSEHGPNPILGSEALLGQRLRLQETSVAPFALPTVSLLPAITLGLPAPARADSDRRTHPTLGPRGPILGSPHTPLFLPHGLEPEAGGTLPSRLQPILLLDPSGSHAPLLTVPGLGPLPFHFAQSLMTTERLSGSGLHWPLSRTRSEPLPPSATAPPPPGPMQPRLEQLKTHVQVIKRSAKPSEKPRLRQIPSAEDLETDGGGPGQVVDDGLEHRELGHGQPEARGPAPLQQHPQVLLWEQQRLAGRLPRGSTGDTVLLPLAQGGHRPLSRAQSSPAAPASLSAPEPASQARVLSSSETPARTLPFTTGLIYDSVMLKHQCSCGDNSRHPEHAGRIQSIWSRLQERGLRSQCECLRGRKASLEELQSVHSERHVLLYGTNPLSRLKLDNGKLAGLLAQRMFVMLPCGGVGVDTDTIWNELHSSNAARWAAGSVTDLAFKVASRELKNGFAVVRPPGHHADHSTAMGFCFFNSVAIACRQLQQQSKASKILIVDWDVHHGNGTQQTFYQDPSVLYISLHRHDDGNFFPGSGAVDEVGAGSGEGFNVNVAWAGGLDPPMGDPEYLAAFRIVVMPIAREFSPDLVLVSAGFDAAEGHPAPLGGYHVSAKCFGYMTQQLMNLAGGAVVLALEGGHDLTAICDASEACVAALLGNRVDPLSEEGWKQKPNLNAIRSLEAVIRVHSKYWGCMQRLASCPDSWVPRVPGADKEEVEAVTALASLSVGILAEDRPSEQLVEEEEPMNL

K562 [7] = assay: Induction of apoptosis in human K562 cells assessed as early apoptotic cells at 8 nM incubated for 48 hrs by Annexin V/PI staining based flow cytometry (reference value: 1.55 +/- 0.21 %); format: functional
K562 [8] = assay: Induction of apoptosis in human K562 cells assessed as early apoptotic cells at 2 nM incubated for 48 hrs by Annexin V/PI staining based flow cytometry (reference value: 1.55 +/- 0.21 %); format: functional
A549 = assay: cells; conditions: Homo sapiens, A549, 72 h
Description: Antiproliferative activity against human A549 cells incubated for 72 hrs by MTT assay

K562 [9] = assay: Inhibition of mitochondrial membrane potential in human K562 cells assessed as red fluorescence intensity at 2 nM incubated for 48 hrs by JC-1 staining based flow cytometry (reference value: 93.36 +/- 0.21 %); format: functional
[10] = Antiproliferative activity against human HFL1 cells incubated for 72 hrs by MTT assay; format: toxicity, cell-based
A2780 = assay: cells; conditions: Homo sapiens, A2780, 72 h
Description: Antiproliferative activity against human A2780 cells incubated for 72 hrs by MTT assay

Histone deacetylase 2 = Histone deacetylase 2 (Homo sapiens, UniProt Q92769); assay: Inhibition of HDAC2 in human K562 cells assessed as increase in Acetyl-histone H3 level at 0.01 to 1 uM incubated for 24 hrs by Western blot analysis; format: cell-based; conditions: dose 0.01-1 µM
Chain of Histone deacetylase 2 (Q92769 whole entry): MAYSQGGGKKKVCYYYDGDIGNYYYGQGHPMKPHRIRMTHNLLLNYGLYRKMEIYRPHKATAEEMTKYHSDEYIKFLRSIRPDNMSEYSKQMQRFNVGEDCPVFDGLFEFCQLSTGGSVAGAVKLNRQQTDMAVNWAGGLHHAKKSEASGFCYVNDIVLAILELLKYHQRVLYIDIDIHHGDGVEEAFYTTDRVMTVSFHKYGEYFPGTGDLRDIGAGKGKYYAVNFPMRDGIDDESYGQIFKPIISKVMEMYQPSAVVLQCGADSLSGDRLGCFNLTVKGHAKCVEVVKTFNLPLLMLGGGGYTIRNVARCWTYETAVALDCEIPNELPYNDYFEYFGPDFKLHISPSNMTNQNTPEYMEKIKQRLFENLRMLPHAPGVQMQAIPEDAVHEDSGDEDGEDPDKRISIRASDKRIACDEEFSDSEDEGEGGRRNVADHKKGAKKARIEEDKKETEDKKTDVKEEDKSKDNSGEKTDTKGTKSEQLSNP

K562 [11] = assay: Induction of cell cycle arrest at G1 phase in human K562 cells at 8 nM incubated for 48 hrs by PI staining based flow cytometry (reference value: 62.08 +/- 0.40 %); format: functional
Histone deacetylase 3 [12] = target: T1, Histone deacetylase 3; assay: Inhibition of HDAC3 in human K562 cells assessed as increase in Acetyl-histone H3 level at 0.01 to 1 uM incubated for 24 hrs by Western blot analysis; format: cell-based; conditions: dose 0.01-1 µM
K562 [13] = assay: Inhibition of mitochondrial membrane potential in human K562 cells assessed as green fluorescence intensity at 8 nM incubated for 48 hrs by JC-1 staining based flow cytometry (reference value: 6.63 +/- 0.27 %); format: functional
Histone deacetylase 1 [14] = target: T2, Histone deacetylase 1; assay: Inhibition of HDAC1 derived from human HeLa cell extract using Ac-Leu-Gly-Lys (Ac)-AMC as substrate by fluorescence based assay; format: cell-free
K562 [15] = assay: Induction of apoptosis in human K562 cells assessed as viable cells at 8 nM incubated for 48 hrs by Annexin V/PI staining based flow cytometry (reference value: 92.52 +/- 0.34 %); format: functional; conditions: read-out: Activity

C=C(c1ccc(OC)c(OC(F)C(=O)NO)c1)c1cc(C)nc2ccccc12 (stereo not given)
Activity (K562 [1]): 8.7%
IC50 (MCF7): 36 nM
IC50 (Histone deacetylase 3 [2]): 3550 nM
Activity (K562 [3]): Dose-Dependent Effect
Activity [4]: Non-Toxic
inhibition (Histone deacetylase 1 [5]): Active
Activity (K562 [6]): 20.48%
IC50 (Histone deacetylase 7): > 10000 nM
Activity (K562 [7]): 18.11%
Activity (K562 [8]): 14.52%
IC50 (A549): 17 nM
Flu intensity (K562 [9]): 82.36%
IC50 at 72 h [10]: 230 nM
IC50 (A2780): 5 nM
inhibition (Histone deacetylase 2): Active
Activity (K562 [11]): 41.72%
inhibition (Histone deacetylase 3 [12]): Active
Flu intensity (K562 [13]): 42.31%
IC50 (Histone deacetylase 1 [14]): 403 nM
viability at 0.008 µM (K562 [15]): 52.6%
